Structures are written as SMILES.

Sequence of human Nav 1.8 (Q9Y5Y9 126-399 limits assumed): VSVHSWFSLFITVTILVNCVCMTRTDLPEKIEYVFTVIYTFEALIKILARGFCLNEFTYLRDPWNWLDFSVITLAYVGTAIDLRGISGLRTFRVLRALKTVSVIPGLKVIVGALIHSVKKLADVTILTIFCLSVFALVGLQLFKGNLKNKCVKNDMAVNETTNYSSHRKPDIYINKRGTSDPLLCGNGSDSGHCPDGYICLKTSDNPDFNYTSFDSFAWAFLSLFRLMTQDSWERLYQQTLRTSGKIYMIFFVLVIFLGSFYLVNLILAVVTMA
Sequence of human Nav 1.8 (Q9Y5Y9 660-890 limits assumed): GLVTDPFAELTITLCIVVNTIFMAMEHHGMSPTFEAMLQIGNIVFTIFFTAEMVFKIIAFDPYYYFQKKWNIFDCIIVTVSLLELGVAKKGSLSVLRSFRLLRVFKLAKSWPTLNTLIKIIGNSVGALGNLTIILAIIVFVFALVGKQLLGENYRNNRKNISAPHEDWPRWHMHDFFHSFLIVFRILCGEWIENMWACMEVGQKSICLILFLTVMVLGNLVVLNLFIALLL
Sequence of human Nav 1.8 (Q9Y5Y9 1148-1722 limits assumed): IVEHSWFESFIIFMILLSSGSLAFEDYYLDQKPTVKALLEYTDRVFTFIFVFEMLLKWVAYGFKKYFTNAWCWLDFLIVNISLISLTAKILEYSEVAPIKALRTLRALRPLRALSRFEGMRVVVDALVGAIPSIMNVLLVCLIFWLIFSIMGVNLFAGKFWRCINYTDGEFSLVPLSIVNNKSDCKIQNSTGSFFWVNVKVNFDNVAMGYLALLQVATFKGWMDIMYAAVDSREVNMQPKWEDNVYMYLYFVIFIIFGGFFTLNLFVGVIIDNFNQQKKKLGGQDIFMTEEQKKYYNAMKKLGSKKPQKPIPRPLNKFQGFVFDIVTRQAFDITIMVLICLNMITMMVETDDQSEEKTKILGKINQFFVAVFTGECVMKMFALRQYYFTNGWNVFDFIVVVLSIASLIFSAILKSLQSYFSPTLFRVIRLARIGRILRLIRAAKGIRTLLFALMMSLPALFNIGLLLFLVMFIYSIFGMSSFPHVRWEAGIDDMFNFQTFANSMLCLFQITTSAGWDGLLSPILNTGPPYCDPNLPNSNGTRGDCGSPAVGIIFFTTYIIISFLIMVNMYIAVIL

The first experiment has as its target human Nav 1.8 (Homo sapiens, UniProt Q9Y5Y9). Description: E-VIPR assay detecting and measuring Nav inhibition properties. It is filed as cell-based. Particulars: HEK cells expressing a truncated form of human Nav 1.8; assay performed in the presence of human serum (compound numbers followed by "*"); read-out: measured IC50 value in the E-VIPR Assay. A digest of the protocol: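 Nav inhibition was read by E-VIPR: cells were electrically stimulated while coumarin/oxonol FRET emissions were recorded. Cells were HEK expressing a truncated human Nav 1.8 and co-transduced with KIR2.1, and were assayed in 25% final human serum.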
As to `C[C@]1(C(F)(F)F)C[C@@H](c2ccc(F)c(F)c2OCCCO)[C@H](C(=O)Nc2ccnc(C(N)=O)c2)O1` (relative stereo) [Compound 35, rel-4-((2R,3S,5R)-3-(3,4-difluoro-2-(3-hydroxypropoxy)phenyl)-5-methyl-5-(trifluoromethyl)tetrahydrofuran-2-carboxamido)picolinamide], the half-inhibitory concentration (IC50) lay in the range of 100 to 1000 nM.

The same experiment, now with this note: HEK cells expressing a truncated form of human Nav 1.8; compound numbers without "*" (not marked as run in the presence of human serum); read-out: measured IC50 value in the E-VIPR Assay.
With `COc1c([C@@H]2[C@@H](C(=O)Nc3ccnc(C(N)=O)c3)O[C@](C)(C(F)(F)F)[C@@H]2C)ccc(OCC2CC2)c1F` (single isomer, unassigned) [Compound 141], the IC50 was in the range of 100 to 1000 nM.
The same measure, in the same setting: the value for `C[C@H]1[C@@H](c2ccc(F)c(F)c2COC2COC2)[C@H](C(=O)Nc2ccnc(C(N)=O)c2)O[C@@]1(C)C(F)(F)F` [Compound 211, 4-((2R,3S,4S,5R)-3-(3,4-difluoro-2-((oxetan-3-yloxy)methyl)phenyl)-4,5-dimethyl-5-(trifluoromethyl)tetrahydrofuran-2-carboxamido) picolinamide] was less than 10 nM; that for `CNC(=O)c1cc(NC(=O)[C@@H]2O[C@@](C)(C(F)(F)F)[C@@H](C)[C@H]2c2ccc(F)c(F)c2O[C@H]2C[C@@H](O)C2)ccn1` [Compound 201] was 10 to 100 nM.
The same measure, in the same setting: the value for `C[C@H]1[C@@H](c2ccc(F)c(F)c2OCCN[C@H]2CCOC2)[C@H](C(=O)Nc2ccnc(C(N)=O)c2)O[C@@]1(C)C(F)(F)F` [Compound 117, 4-((2R,3S,4S,5R)-3-(3,4-difluoro-2-(2-(((S)-tetrahydrofuran-3-yl)amino)ethoxy)phenyl)-4,5-dimethyl-5-(trifluoromethyl)tetrahydrofuran-2-carboxamido)picolinamide] was 10 to 100 nM.
On the same count and under the same terms, the value for `COc1c([C@H]2[C@H](C(=O)Nc3ccnc(C(=O)N4CC5(CN(C)C5)C4)c3)O[C@@](C)(C(F)(F)F)[C@H]2C)ccc(F)c1F` [Compound 268, (2R,3S,4S,5R)-3-(3,4-difluoro-2-methoxyphenyl)-4,5-dimethyl-N-(2-(6-methyl-2,6-diazaspiro[3.3]heptane-2-carbonyl)pyridin-4-yl)-5-(trifluoromethyl)tetrahydrofuran-2-carboxamide] was less than 10 nM.
Take `CNCCN(C)C(=O)c1cc(NC(=O)[C@@H]2O[C@@](C)(C(F)(F)F)[C@@H](C)[C@H]2c2ccc(F)c(F)c2OC)ccn1` [Compound 234, 4-((2R,3S,4S,5R)-3-(3,4-difluoro-2-methoxyphenyl)-4,5-dimethyl-5-(trifluoromethyl)tetrahydrofuran-2-carboxamido)-N-methyl-N-(2-(methylamino)ethyl)picolinamide]: the IC50 is less than 10 nM.
On the same count and under the same terms, the value for `CC(=O)C1CC(Oc2c([C@H]3[C@H](C(=O)Nc4ccnc(C(N)=O)c4)O[C@@](C)(C(F)(F)F)[C@H]3C)ccc(F)c2F)C1` (stereo partly drawn) [Compound 170, 4-((2R,3S,4S,5R)-3-(2-(3-acetylcyclobutoxy)-3,4-difluorophenyl)-4,5-dimethyl-5-(trifluoromethyl)tetrahydrofuran-2-carboxamido)picolinamide] was less than 10 nM; that for `COc1c([C@H]2[C@H](C(=O)Nc3cc(C(=O)N4CCNCC4)ncc3C)O[C@@](C)(C(F)(F)F)[C@H]2C)ccc(F)c1F` [Compound 15, (2R,3S,4S,5R)-3-(3,4-difluoro-2-methoxy-phenyl)-4,5-dimethyl-N-[5-methyl-2-(piperazine-1-carbonyl)-4-pyridyl]-5-(trifluoromethyl)tetrahydrofuran-2-carboxamide] was less than 10 nM.
For the compound `CNCCNC(=O)c1cc(NC(=O)[C@@H]2O[C@@](C)(C(F)(F)F)[C@@H](C)[C@H]2c2ccc(F)c(F)c2OC)ccn1` [Compound 231, 4-((2R,3S,4S,5R)-3-(3,4-difluoro-2-methoxyphenyl)-4,5-dimethyl-5-(trifluoromethyl)tetrahydrofuran-2-carboxamido)-N-(2-(methylamino)ethyl)picolinamide], the IC50 is less than 10 nM.
The same measure, in the same setting: the figure for `COc1c([C@H]2[C@H](C(=O)Nc3cc(C(=O)N4CCN(C)CC4)ncc3C)O[C@@](C)(C(F)(F)F)[C@H]2C)ccc(F)c1F` [Compound 12, (2R,3S,4S,5R)-3-(3,4-difluoro-2-methoxyphenyl)-4,5-dimethyl-N-(5-methyl-2-(4-methylpiperazine-1-carbonyl)pyridin-4-yl)-5-(trifluoromethyl)tetrahydrofuran-2-carboxamide] is 10 to 100 nM.
The same measure, in the same setting: the figure for `CNCCOc1c([C@H]2[C@H](C(=O)Nc3ccnc(C(N)=O)c3)O[C@@](C)(C(F)(F)F)[C@H]2C)ccc(F)c1F` [Compound 114, 4-((2R,3S,4S,5R)-3-(3,4-difluoro-2-(2-(methylamino)ethoxy)phenyl)-4,5-dimethyl-5-(trifluoromethyl)tetrahydrofuran-2-carboxamido)picolinamide] is 10 to 100 nM; for `CCO[C@H]1CN(C)C[C@@H]1NC(=O)c1cc(NC(=O)[C@@H]2O[C@@](C)(C(F)(F)F)[C@@H](C)[C@H]2c2ccc(F)c(F)c2OC)ccn1` [Compound 291, 4-((2R,3S,4S,5R)-3-(3,4-difluoro-2-methoxyphenyl)-4,5-dimethyl-5-(trifluoromethyl)tetrahydrofuran-2-carboxamido)-N-((3S,4S)-4-ethoxy-1-methylpyrrolidin-3-yl)picolinamide] it is 100 to 1000 nM.
Same read-out and setting: the figure for `C[C@@H](O)COc1c([C@H]2[C@H](C(=O)Nc3ccnc(C(N)=O)c3)O[C@@](C)(C(F)(F)F)[C@H]2C)ccc(F)c1F` [Compound 152, 4-((2R,3S,4S,5R)-3-(3,4-difluoro-2-((R)-2-hydroxypropoxy)phenyl)-4,5-dimethyl-5-(trifluoromethyl)tetrahydrofuran-2-carboxamido) picolinamide] is 10 to 100 nM; for `COc1c([C@H]2[C@H](C(=O)Nc3ccnc(C(=O)N[C@@H]4CNC[C@H](C)C4)c3)O[C@@](C)(C(F)(F)F)[C@H]2C)ccc(F)c1F` [Compound 252, 4-((2R,3S,4S,5R)-3-(3,4-difluoro-2-methoxyphenyl)-4,5-dimethyl-5-(trifluoromethyl)tetrahydrofuran-2-carboxamido)-N-((3S,5R)-5-methylpiperidin-3-yl)picolinamide] it is 10 to 100 nM; for `COC[C@H]1CN(C(=O)c2cc(NC(=O)[C@@H]3O[C@@](C)(C(F)(F)F)[C@@H](C)[C@H]3c3ccc(F)c(F)c3OC)ccn2)CCN1` [Compound 248, (2R,3S,4S,5R)-3-(3,4-difluoro-2-methoxyphenyl)-N-(2-((R)-3-(methoxymethyl)piperazine-1-carbonyl)pyridin-4-yl)-4,5-dimethyl-5-(trifluoromethyl)tetrahydrofuran-2-carboxamide] it is less than 10 nM.
On to `C[C@H]1[C@@H](c2ccc(F)c(F)c2OC2CC(F)(F)C2)[C@H](C(=O)Nc2ccnc(C(N)=O)c2)O[C@@]1(C)C(F)(F)F` [Compound 173, 4-((2R,3S,4S,5R)-3-(2-(3,3-difluorocyclobutoxy)-3,4-difluorophenyl)-4,5-dimethyl-5-(trifluoromethyl)tetrahydrofuran-2-carboxamido)picolinamide], for which the IC50 was less than 10 nM.
Same read-out and setting: the value for `C[C@H]1[C@@H](c2ccc(F)c(F)c2OCCN2CC3(CCOC3)C2)[C@H](C(=O)Nc2ccnc(C(=O)N3CC4(CCOC4)C3)c2)O[C@@]1(C)C(F)(F)F` [Compound 123, (2R,3S,4S,5R)-3-(2-(2-(6-oxa-2-azaspiro[3.4]octan-2-yl)ethoxy)-3,4-difluorophenyl)-N-(2-(6-oxa-2-azaspiro[3.4]octane-2-carbonyl)pyridin-4-yl)-4,5-dimethyl-5-(trifluoromethyl)tetrahydrofuran-2-carboxamide] was no less than 1000 nM; that for `C[C@H]1[C@@H](c2ccc(F)c(F)c2OCCc2nccn2C)[C@H](C(=O)Nc2ccnc(C(N)=O)c2)O[C@@]1(C)C(F)(F)F` [Compound 87, 4-((2R,3S,4S,5R)-3-(3,4-difluoro-2-(2-(1-methyl-1H-imidazol-2-yl)ethoxy)phenyl)-4,5-dimethyl-5-(trifluoromethyl)tetrahydrofuran-2-carboxamido)picolinamide] was 10 to 100 nM.
As for `C[C@H]1[C@@H](c2ccc(F)c(F)c2OC2CC(=NO)C2)[C@H](C(=O)Nc2ccnc(C(N)=O)c2)O[C@@]1(C)C(F)(F)F` (stereo partly drawn) [Compound 192, 4-((2R,3S,4S,5R)-3-(3,4-difluoro-2-(3-(hydroxyimino)cyclobutoxy)phenyl)-4,5-dimethyl-5-(trifluoromethyl)tetrahydrofuran-2-carboxamido)picolinamide], the IC50 is less than 10 nM.
Same read-out and setting: the value for `C[C@H]1[C@@H](c2ccc(F)c(F)c2OC/C(=N\O)C(C)(C)C)[C@H](C(=O)Nc2ccnc(C(N)=O)c2)O[C@@]1(C)C(F)(F)F` [Compound 189, 4-((2R,3S,4S,5R)-3-(3,4-difluoro-2-((Z)-2-(hydroxyimino)-3,3-dimethylbutoxy)phenyl)-4,5-dimethyl-5-(trifluoromethyl)tetrahydrofuran-2-carboxamido)picolinamide] was less than 10 nM; that for `Cc1cnc(C(N)=O)cc1NC(=O)[C@@H]1O[C@@](C)(C(F)(F)F)[C@@H](C)[C@H]1c1ccc(F)c(F)c1OCCN1CC2(COC2)C1` [Compound 181, 4-((2R,3S,4S,5R)-3-(2-(2-(2-oxa-6-azaspiro[3.3]heptan-6-yl)ethoxy)-3,4-difluorophenyl)-4,5-dimethyl-5-(trifluoromethyl)tetrahydrofuran-2-carboxamido)-5-methylpicolinamide] was 10 to 100 nM; that for `C[C@H]1[C@@H](c2ccc(F)c(F)c2OCCN2CC(C(F)F)C2)[C@H](C(=O)Nc2ccnc(C(N)=O)c2)O[C@@]1(C)C(F)(F)F` [Compound 120, 4-((2R,3S,4S,5R)-3-(2-(2-(3-(difluoromethyl)azetidin-1-yl)ethoxy)-3,4-difluorophenyl)-4,5-dimethyl-5-(trifluoromethyl)tetrahydrofuran-2-carboxamido)picolinamide] was less than 10 nM.

The record behind these values is patent publication US20250213555A1, “SUBSTITUTED TETRAHYDROFURAN ANALOGS AS MODULATORS OF SODIUM CHANNELS” (VERTEX PHARMACEUTICALS INCORPORATED, priority 2021, published 2025).
